Data on 29 compounds can be found in ChEMBL document CHEMBL1201862, “PubChem BioAssay data set” (2004).

The structures appear in SMILES notation. Calls of active or inactive are those of the source. For most assays here, no stated cut-off is given here; in the data, actives have a measured EC50 and inactives only a lower limit.

Experiment [1] has as its target T1, Heat shock factor protein 1 (Mus musculus, UniProt P38532).
T1 sequence (P38532 whole entry): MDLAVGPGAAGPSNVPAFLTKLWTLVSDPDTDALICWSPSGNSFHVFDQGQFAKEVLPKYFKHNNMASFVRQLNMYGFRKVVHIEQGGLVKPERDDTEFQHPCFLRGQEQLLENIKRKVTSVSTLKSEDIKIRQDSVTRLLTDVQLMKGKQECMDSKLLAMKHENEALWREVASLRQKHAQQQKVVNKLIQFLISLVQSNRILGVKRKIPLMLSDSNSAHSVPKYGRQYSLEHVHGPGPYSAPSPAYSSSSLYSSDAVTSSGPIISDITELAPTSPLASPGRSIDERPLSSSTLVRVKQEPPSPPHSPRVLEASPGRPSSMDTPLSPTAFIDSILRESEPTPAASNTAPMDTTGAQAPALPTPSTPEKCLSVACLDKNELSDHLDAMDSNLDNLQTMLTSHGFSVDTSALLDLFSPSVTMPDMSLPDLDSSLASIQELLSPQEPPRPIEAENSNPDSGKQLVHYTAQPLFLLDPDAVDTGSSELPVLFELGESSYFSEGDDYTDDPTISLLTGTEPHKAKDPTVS
Kind of experiment: enhancement of HSF1-driven luciferase signal – cell-based, NIH3T3, luminescence, dose retest, confirmation (AID 435004).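 Further: stress induced by proteasome inhibitor MG132 added 30 min after compound; luciferase reporter driven by HSF1 response element in NIH3T3 cells; actives raise luminescence as potentiators of the MG132 stress response.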 It is filed as functional.

A short description of experiment [2]: NIH-3T3 fibroblast cytotoxicity, dose response, cytotoxicity control, cell-based, fluorescence, Alamar Blue, secondary assay (AID 2327).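 Further: NIH-3T3 mouse fibroblasts cultured with fluconazole at 8 µg/mL.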 The format is functional. A general note: Alamar Blue is a resazurin reagent that responds to reducing activity.
Experiment [3] is described as follows: fluconazole-exposed Candida albicans growth modulators – fluorescence, retest, confirmation (AID 2467). The format is functional, cell-based.
Experiment [4] has as its target T2, RNA-binding protein pos-1 (Caenorhabditis elegans, UniProt G5EF15).
T2 sequence (G5EF15 whole entry): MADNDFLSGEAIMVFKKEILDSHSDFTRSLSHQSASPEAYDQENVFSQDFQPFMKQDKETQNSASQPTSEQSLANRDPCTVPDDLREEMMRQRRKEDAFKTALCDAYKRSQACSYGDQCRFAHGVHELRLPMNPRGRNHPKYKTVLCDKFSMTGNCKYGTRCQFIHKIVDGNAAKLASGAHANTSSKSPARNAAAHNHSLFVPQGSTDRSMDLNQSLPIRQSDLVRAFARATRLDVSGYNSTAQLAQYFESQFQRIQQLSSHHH
Description: disruptors of C. elegans POS-1 RNA interaction – biochemical, fluorescence polarization, dose response (AID 1964).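 Further: purified POS-1 fused to maltose binding protein made in E. coli; potency of compounds blocking POS-1 binding to fluorescent RNA.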 On the technique in general: Fluorescence polarisation rises when a labelled molecule tumbles more slowly, as on binding a larger partner.

Experiment [5] has as its target T3, Zinc finger protein mex-5 (Caenorhabditis elegans, UniProt Q9XUB2).
T3 sequence (Q9XUB2 whole entry): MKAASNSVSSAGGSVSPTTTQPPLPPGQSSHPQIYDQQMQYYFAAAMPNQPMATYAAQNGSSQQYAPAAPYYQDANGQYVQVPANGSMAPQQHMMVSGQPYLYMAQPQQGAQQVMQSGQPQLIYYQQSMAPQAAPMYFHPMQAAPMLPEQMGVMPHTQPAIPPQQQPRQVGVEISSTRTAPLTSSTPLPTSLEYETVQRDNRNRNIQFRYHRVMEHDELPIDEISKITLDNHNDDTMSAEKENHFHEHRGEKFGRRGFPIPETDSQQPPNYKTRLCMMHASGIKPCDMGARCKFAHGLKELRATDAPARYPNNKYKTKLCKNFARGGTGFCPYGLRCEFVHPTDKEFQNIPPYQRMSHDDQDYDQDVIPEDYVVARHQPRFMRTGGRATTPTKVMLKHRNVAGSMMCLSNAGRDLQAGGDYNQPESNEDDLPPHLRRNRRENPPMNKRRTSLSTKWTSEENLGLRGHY
Kind of experiment: potency of MEX-5 RNA-binding blockers – biochemical, C. elegans, fluorescence polarization, dose response (AID 1960).

The next experiment addresses Genome polyprotein (dengue virus type 2, UniProt P29990). Description: flavivirus cap methylation enzyme inhibition – biochemical, confirmation dose response, primary screen (AID 588689). It is filed as functional.
For another experiment, the target named is Fatty acid synthase (Homo sapiens, UniProt P49327). Description: inhibition of human FAS-TE enzyme activity – biochemical, kinetic fluorescence intensity, dose response (AID 624326).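 Further: rate of fluorescence rise from hydrolysis of a fluorogenic O-methyl fluorescein ester substrate.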 The format is functional.
Experiment [6] addresses T4, Corticotropin-releasing factor receptor 2/Corticotropin-releasing factor-binding protein (Homo sapiens, UniProt P24387+Q13324).
T4 sequence (Q13324 whole entry): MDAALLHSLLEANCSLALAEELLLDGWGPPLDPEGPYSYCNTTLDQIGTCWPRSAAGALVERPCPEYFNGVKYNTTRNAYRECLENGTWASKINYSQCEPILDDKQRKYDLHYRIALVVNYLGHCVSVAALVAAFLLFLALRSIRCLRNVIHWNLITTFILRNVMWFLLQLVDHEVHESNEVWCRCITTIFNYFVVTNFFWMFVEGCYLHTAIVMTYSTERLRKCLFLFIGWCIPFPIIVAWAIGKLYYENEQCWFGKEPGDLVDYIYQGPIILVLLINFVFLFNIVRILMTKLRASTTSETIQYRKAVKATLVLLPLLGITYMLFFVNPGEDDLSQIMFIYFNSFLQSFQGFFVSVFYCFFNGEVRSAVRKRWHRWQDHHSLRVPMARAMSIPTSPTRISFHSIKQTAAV
T4 sequence (P24387 whole entry): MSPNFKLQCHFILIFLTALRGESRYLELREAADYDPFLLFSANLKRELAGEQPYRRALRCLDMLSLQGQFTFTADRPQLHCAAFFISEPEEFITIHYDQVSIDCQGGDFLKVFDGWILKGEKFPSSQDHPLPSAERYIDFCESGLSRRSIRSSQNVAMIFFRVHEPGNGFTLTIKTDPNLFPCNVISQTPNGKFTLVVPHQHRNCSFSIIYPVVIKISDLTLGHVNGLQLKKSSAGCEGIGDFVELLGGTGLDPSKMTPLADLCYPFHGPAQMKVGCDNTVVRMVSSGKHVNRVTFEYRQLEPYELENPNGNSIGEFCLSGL
Kind of experiment: activators of CRF receptor 2 with binding protein – uHTS hits, confirmation (AID 602473). The format is functional. The conditions noted are these: read-out: EC50_Mean.

Experiment [7] can be described thus: reduction of Shn3 3'UTR-driven luciferase in osteoblasts – cell-based, Clone20 osteoblasts, firefly luciferase, cherry-picked, dose response (AID 624132).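 Further: firefly luciferase luminescence from reporter carrying the Shn3 3'UTR in osteoblasts.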 The format is functional.
Experiment [8] is described as follows: luciferase reporter signal suppression in cells – H4 neuroglioma cells, luminescence, dose response (AID 1990). The format is functional, cell-based.
A short description of experiment [9]: cells. It is filed as functional, cell-based.
Experiment [10] is described as follows: Luminescence Cell-Based Dose Response HTS to Identify Inhibitors of 5'UTR Stem-Loop Driven Prion Protein mRNA Translation in H4 Neuroglioblastoma Cells. [Related pubchem assays: 1827 (Project Summary), 1813 (Primary HTS)]. It is filed as functional.
A short description of experiment [11]: alpha-synuclein stem-loop luciferase translation blockers – H4 neuroglioma cells, luminescence, confirmation (AID 1988). It is filed as functional, cell-based.
Experiment [12] is described as follows: cells. The format is functional, cell-based. This is another data set of the same source.
Another experiment has as its system INS1. Description: INS-1E survival protection against cytokine death – cell-based, luminescence, retest, dose response (AID 449756).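 Further: cell death triggered by IL-1 beta plus TNF-alpha plus IFN-gamma mixture; protective hits raise ATP signal compared with cytokine alone wells.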 It is filed as functional. The conditions noted are these: Rattus norvegicus.
Experiment [13] can be described thus: Trypanosoma cruzi growth suppression in host cells – NIH3T3 host cells, beta-gal luminescence, confirmation (AID 2044).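 Further: intracellular parasites grown in NIH/3T3 mouse fibroblasts as host cells; luminescent beta-galactosidase reporter signal from transgenic T. cruzi replicating inside host cells; inhibitors lower the luminescence signal.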 The format is functional, cell-based.
Experiment [14] is described as follows: NIH3T3 cell viability loss – ATP luminescence, mouse fibroblasts, counter-screen, dose response (AID 2010).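 Further: cells exposed to compound for about 90 hours before reading.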 It is filed as functional, cell-based. (In general: A counterscreen serves to expose hits that act by an unwanted route or on another target.)

Genome polyprotein, sequence (P29990 2492-3391 limits assumed): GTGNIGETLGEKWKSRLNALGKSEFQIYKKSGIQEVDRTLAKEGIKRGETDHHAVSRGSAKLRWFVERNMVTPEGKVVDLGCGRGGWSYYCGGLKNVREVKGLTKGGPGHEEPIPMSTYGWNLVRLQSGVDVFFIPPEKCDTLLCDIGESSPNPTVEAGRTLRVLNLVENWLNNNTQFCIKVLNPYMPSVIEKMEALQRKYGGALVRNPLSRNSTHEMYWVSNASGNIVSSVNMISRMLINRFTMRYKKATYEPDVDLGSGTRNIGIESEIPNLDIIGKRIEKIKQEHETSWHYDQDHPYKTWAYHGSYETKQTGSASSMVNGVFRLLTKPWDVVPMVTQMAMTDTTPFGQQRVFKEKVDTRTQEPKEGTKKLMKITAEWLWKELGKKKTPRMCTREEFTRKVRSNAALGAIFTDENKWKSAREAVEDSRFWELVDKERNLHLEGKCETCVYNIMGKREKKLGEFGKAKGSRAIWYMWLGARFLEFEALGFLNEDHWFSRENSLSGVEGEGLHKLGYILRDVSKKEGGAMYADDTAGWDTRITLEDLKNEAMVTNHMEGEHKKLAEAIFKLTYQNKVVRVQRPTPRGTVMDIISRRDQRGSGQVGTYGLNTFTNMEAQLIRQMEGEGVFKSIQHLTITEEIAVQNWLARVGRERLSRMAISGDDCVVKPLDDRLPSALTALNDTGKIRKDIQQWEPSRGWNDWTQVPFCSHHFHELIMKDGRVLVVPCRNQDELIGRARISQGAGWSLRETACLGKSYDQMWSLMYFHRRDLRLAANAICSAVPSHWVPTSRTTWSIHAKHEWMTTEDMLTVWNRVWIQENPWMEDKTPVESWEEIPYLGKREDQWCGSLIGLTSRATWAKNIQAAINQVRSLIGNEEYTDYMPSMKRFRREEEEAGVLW
Fatty acid synthase, sequence (P49327 whole entry): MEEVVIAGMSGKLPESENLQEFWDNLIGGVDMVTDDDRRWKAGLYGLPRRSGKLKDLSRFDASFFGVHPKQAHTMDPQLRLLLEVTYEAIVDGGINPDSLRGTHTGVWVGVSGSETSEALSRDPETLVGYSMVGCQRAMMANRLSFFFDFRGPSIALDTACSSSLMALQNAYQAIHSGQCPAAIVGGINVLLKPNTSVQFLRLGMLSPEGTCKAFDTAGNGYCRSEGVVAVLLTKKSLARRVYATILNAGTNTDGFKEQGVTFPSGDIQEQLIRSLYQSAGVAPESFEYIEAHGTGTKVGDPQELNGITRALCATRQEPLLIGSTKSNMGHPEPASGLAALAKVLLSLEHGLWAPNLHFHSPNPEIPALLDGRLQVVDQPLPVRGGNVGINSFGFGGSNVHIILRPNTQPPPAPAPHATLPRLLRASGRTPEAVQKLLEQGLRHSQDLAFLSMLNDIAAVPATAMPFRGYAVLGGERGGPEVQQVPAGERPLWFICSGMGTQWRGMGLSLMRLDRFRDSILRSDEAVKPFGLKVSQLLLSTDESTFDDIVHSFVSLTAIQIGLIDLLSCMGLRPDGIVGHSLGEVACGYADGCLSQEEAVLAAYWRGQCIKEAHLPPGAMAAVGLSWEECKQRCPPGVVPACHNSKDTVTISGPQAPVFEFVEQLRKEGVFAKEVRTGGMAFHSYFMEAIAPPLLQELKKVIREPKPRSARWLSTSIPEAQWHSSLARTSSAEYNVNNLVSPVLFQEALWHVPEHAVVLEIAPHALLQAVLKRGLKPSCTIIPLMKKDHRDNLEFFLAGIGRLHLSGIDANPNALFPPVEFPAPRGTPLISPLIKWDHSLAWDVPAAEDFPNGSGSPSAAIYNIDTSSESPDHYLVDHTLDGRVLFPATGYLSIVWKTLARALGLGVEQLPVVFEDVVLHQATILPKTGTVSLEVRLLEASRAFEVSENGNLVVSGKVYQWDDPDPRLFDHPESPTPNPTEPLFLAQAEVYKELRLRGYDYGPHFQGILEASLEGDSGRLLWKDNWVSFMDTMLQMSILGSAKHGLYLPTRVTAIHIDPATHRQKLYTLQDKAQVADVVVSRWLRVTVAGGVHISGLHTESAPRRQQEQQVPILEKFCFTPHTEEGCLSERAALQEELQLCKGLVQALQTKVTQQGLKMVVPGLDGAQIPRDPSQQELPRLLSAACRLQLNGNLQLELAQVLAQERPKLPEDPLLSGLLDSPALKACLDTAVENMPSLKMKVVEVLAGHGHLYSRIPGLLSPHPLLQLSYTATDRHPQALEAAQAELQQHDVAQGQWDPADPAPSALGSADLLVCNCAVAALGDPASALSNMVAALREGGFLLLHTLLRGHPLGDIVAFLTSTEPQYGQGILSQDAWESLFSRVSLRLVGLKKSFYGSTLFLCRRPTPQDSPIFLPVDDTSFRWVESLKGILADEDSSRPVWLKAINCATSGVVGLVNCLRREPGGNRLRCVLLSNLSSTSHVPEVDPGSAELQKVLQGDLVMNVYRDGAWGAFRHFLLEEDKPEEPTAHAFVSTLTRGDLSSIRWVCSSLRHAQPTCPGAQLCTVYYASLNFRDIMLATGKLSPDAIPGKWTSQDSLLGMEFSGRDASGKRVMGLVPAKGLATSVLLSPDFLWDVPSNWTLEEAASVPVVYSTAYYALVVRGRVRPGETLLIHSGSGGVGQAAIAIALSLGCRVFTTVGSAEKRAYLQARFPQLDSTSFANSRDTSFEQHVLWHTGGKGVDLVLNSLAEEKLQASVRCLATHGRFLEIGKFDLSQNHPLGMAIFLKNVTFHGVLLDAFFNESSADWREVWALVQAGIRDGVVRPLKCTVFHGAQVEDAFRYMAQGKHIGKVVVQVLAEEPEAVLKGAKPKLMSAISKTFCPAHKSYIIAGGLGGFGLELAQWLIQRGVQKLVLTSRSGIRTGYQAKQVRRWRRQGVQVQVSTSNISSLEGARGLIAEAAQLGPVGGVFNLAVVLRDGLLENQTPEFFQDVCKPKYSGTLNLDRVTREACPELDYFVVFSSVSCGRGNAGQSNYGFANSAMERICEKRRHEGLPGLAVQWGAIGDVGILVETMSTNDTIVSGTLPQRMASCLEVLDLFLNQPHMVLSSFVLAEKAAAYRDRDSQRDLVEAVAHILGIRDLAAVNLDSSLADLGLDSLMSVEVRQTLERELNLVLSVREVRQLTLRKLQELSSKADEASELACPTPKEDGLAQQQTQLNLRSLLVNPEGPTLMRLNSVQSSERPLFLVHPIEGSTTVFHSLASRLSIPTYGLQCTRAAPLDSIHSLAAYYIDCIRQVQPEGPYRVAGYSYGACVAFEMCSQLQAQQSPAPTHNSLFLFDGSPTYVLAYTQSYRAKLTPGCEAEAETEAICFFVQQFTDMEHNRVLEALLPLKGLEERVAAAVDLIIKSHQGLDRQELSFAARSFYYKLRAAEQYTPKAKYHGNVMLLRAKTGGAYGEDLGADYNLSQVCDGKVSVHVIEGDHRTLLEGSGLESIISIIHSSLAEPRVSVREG

In the case of `COc1ccccc1CCC(=O)OCC(=O)Nc1c(Br)cc(C)cc1Br`, in experiment [1], the EC50 was > 260 µM (inactive).

Regarding `CC(NC(=O)OCc1ccccc1)C(=O)Oc1cc2oc(=O)cc(-c3ccccc3)c2cc1Cl` (stereo not drawn), the EC50 was > 150 µM (inactive) in [2] and 1.09 µM (active) in [3].

The term IC50 denotes the point on the concentration scale where inhibition reaches its midpoint. Regarding `Oc1ccc(N=Nc2ccccc2-c2nn[nH]n2)c(O)c1`, the EC50 in experiment [4] and in [5] was > 300 µM (not active) each time. Further, the IC50 at Genome polyprotein is > 100 µM (active).

For `O=C(NCCc1ccccc1)c1c(O)c2cccc3c2n(c1=O)CC3`, the EC50 is > 150 µM (inactive) in experiment [2] and > 38 µM (not active) in [3].

Consider `O=C(c1ccc(Cl)c([N+](=O)[O-])c1)N1CCN(c2ccccc2)CC1`, for which the IC50 on Fatty acid synthase is 11.9 µM (active).

In the case of `O=C(COC(=O)c1ccccc1C(=O)c1ccccc1)Nc1cccc([N+](=O)[O-])c1`, in [1], the EC50 was > 260 µM (inactive).

`C=CCn1c(COc2ccc(F)cc2)nnc1SCC(=O)Nc1cccc(S(N)(=O)=O)c1`: in experiment [2], the EC50 is > 160 µM (inactive).

As for `CCOC(=O)c1c(-c2ccc(C)o2)csc1NC(=O)CSc1nncs1`, the EC50 in experiment [1] was > 260 µM (inactive).

On to `Cc1c(Cl)c(C(=O)NC2CCCC2)nn1C`, for which the EC50 in [1] is > 260 µM (inactive).

In the case of `COc1ccccc1CN1CC(C(=O)NCCc2ncccc2C)CCC1=O` (stereo not drawn), in experiment [1], the EC50 is > 260 µM (inactive).

Turning to `O=C(O)/C(=C\c1ccc(Cl)c([N+](=O)[O-])c1)c1ccc(S(=O)(=O)N2CCCCC2)s1`, the IC50 at Genome polyprotein was 81.4 µM (active).

Regarding `C=C(C)CSc1nc(O)cc(C)c1C#N`, the EC50 in experiment [2] was > 150 µM (inactive); in experiment [3], 1.86 µM (active).

Turning to `Cc1cc(-c2nnc(CCC(=O)N(C)Cc3cccc4ccccc34)o2)no1`, the EC50 in [1] was > 260 µM (inactive).

In the case of `CCOC(=O)Cc1csc(NC(=O)CSc2nc(O)c3c(C)c(C(=O)O)sc3n2)n1`, the EC50 in experiment [2] is 104 µM (active); in [3], 5.45 µM (active).

As to `COc1cc(-c2nnc3sc(Cc4ccc(Cl)cc4)nn23)cc(OC)c1OC`, the EC50 in [1] was > 260 µM (inactive).

For `COc1ccc(-c2csc(NC(=O)c3ccccc3Br)c2C(=O)O)cc1`, the half-maximal inhibitory concentration (IC50) at Genome polyprotein was 74.4 µM (active).

As to `CCCN(CC(=O)Nc1ccc(Cl)cc1Cl)C(=O)/C=C/c1ccco1`, the EC50 in experiment [1] is 17.6 µM (active).

`O=C(O)c1cccc(Nc2nc3ccccc3nc2NS(=O)(=O)c2cccs2)c1`: the IC50 at Genome polyprotein is 66.3 µM (active).

For the compound `O=S(=O)([O-])CCC[n+]1c(SCCCS(=O)(=O)O)sc2ccc(Cl)cc21`, the IC50 on Genome polyprotein was > 100 µM (active).

Consider `COc1ccc(C2(c3ccc(OC)cc3)NC(=O)N(CC(=O)N(C)c3ccccc3)C2=O)cc1`, for which the EC50 in [1] was > 260 µM (inactive).

Turning to `CN1C(=O)C2(c3ccccc31)N(C)CC(c1ccccn1)C21SC(=S)N(Cc2ccco2)C1=O` (stereo not drawn), the EC50 in experiment [1] was > 260 µM (inactive).

`O=C1NC[C@@H](c2ccccc2)OC(=O)[C@H](Cc2ccc(F)cc2)CC/C=C/C[C@H]1CC(=O)N(CCO)Cc1ccccc1`: the EC50 in experiment [6] is > 53 µM (inactive).

One may read the AC50 as the concentration giving half of the maximal activity seen. As to `CC1(Cc2ccc(OC(F)(F)F)cc2)C(=O)Nc2c(Cl)ccc(Cl)c21` (stereo not drawn), the half-maximal activity concentration (AC50) in [7] was 25.7 µM (active).

Regarding `O=C(N/N=C/c1cc([N+](=O)[O-])ccc1O)c1cccc2cc[nH]c12`, the EC50 in experiment [8] was > 120 µM (not active); in the experiment “cells [9]”, 311 µM (active); in experiment [10], 10.3 µM (active); in experiment [11], 14.8 µM (active); in “cells [12]”, 24.6 µM (active). Also, the AC50 in the experiment with INS1 was 2.02 µM (active).

As for `CN(C)S(=O)(=O)c1cccc(NC(=S)N/N=C/c2cc(Br)ccc2O)c1`, the EC50 in experiment [2] was > 150 µM (inactive); in the experiment “cells [9]” it was 7.76 µM (active); in [3] it was 2.83 µM (active); in [13], 2.27 µM (active); in “cells [12]” it was > 350 µM (not active); in [14], > 60 µM (not active). For the same compound, the AC50 with INS1 is 0.481 µM (active).

On to `O=C1CSC(=S)N1N=Cc1c(F)cccc1Cl`, for which the EC50 in [6] was > 53 µM (inactive).

As for `CSCCC(NC(=O)c1ccccc1)C(=O)N/N=C(\C)c1ccccc1` (stereo not drawn), the EC50 in experiment [6] was 7.06 µM (active).

Consider `COc1ccc(C(=O)NN/C(C)=C/C(=O)C(F)(F)C(F)(F)C(F)(F)F)cc1`, for which the EC50 in experiment [2] was 47.2 µM (active); in [3], 0.384 µM (active). Further, the AC50 in the experiment on INS1 is 32.5 µM (active).

For the compound `C=CCC1=C/C(=C\c2c(N)n3nc(CC(=O)N4CCCC4)sc3nc2=O)C=C(OC)C1=O`, in experiment [6], the EC50 was 10.6 µM (active).
